Data set [1] concerns BiFC-tau Venus HEK293 cells (tau aggregation, hTau441). In words: BiFC-tau Venus HEK293 cell assay monitoring tau aggregation under thapsigargin. Type of data set: cell-based, human. To be noted: for IC50 / activity at 10 µM: Homo sapiens; for IC50: HEK293, inhibition of BiFC-tau Venus fluorescence, 80 nM thapsigargin, table head prints no unit, μM, read-out: BiFC-tau intensity (IC50); for activity at 10 µM: HEK293-BiFC-tau-Venus cells co-treated with 10 μM compound and 80 nM thapsigargin for 24 hours, read-out: BiFC-tau intensity (%). Here is the method:
Phenotype-based screening to monitor tau assembly was performed using BiFC-tau Venus HEK293 cells in a high-throughput manner. Cells were seeded in 384-well plates at a density of 2.8×10^3 cells/well in 40 μL medium for 24 hours. Cells were treated with 80 nM thapsigargin (Sigma-Aldrich) in 10 μL medium and then ˜ 3,000 pDOS library compounds (10 μM), including compounds according to the present invention, using a 0.1 μL pinning tool. For knockdown experiments, cells were transfected with 5 or 10 nM siRNA using Lipofectamine RNAiMAX and incubated for 48 hours before thapsigargin treatment. […] Plates were scanned on an INCell Analyzer 2000 (GE Healthcare) at λex/λem=490/525 nm for Venus fluorescence (for the FITC channel) and λex/λem=350/455 nm for nuclei (for the DAPI channel). Bright-field images were taken to confirm cell morphology, and images were analyzed to quantify Venus intensity per cell using developer software (GE Healthcare).
1-1. According to the method described in Examples 1-15 above, the expression of Venus-based bimolecular fluorescence complemented-tau (BiFC-tau) was confirmed using HEK293 human embryonic kidney cells, thereby phenotyping the phenotype-based screening was performed.
The N-terminal Venus (VN173) and C-terminal Venus (VC155) fragment sequences are fused with the full-length human tau (hTau441) sequence to form the BiFC-tau Venus HEK293 cell system. Soluble tau dimers can be measured by monitoring the turn-on/off signal of Venus fluorescence through co-expression of the two fused vectors, hTau441-VN173 and hTau441-VC1 55.
As a stimulator of tau aggregation, thapsigargin (TG; an ER stress inducer), a direct inhibitor of sarco/endoplasmic reticulum Ca2^+-ATPase, was used. This disrupts calcium homeostasis. Thapsigargin treatment induces tau dimerization (tau aggregation), which can be confirmed by BiFC-tau Venus fluorescence turn-on.

For data set [2], the system named is acute Alzheimer's mouse model. In words: Acute Alzheimer's mouse model (acquisition and probe test). Type of data set: in vivo. To be noted: acute Alzheimer's mouse model. Here is the method: 7-1. Potential therapeutic effect of SB1617 in an acute Alzheimer's mouse model was identified, and the design for the experiment is schematically shown in FIG. 40
7-3. As a result of confirming the treatment efficacy through a probe test, after removing the platform, it was performed by recording how many times the mouse passed the position where the platform was […]

We go through 36 compounds from patent publication US20230322805A1, “NOVEL PYRIMIDODIAZEPINE DERIVATIVES OR USES THEREOF” (SPARK BIOPHARMA, INC., priority 2020, published 2023).

The melting point is the temperature, or range, at which the solid turns liquid. The term IC50 denotes the midpoint of a concentration-inhibition curve. Regarding `Cc1ccc(S(=O)(=O)N2[C@H]3CNc4ncnc(N(C)Cc5ccccc5)c4[C@@H]2OC3)cc1` [Compound 101], the melting point is 150 to 152 °C. Besides, in data set [1], the IC50 is 9.1 µM and the activity at 10 µM was 65%.

`COc1ccc(S(=O)(=O)N2[C@H]3CNc4ncnc(N(C)Cc5ccccc5)c4[C@@H]2OC3)cc1` [Compound 102] gave a melting point of 121 to 123 °C. For the same compound, in data set [1], the activity at 10 µM turned out to be 79%.

For the compound `CN(Cc1ccccc1)c1ncnc2c1[C@@H]1OC[C@H](CN2)N1S(=O)(=O)c1ccccc1[N+](=O)[O-]` [Compound 103], the activity at 10 µM in data set [1] is 102%.

With `CN(Cc1ccccc1)c1ncnc2c1[C@@H]1OC[C@H](CN2)N1S(=O)(=O)c1cccc([N+](=O)[O-])c1` [Compound 104], in data set [1], the activity at 10 µM was found to be 115%.

Consider `CN(Cc1ccccc1)c1ncnc2c1[C@@H]1OC[C@H](CN2)N1S(=O)(=O)c1ccc([N+](=O)[O-])cc1` [Compound 105], for which the melting point lay in the range of 97 to 99 °C. Moreover, in data set [1], the concentration for half-maximal inhibition (IC50) was found to be 5.2 µM and the activity at 10 µM was 46%.

Consider `CN(Cc1ccccc1)c1ncnc2c1[C@@H]1OC[C@H](CN2)N1S(=O)(=O)c1ccc(F)cc1` [Compound 106], for which the melting point lay within 105 to 107 °C. For the same compound, the activity at 10 µM in data set [1] is 81%.

With `CN(Cc1ccccc1)c1ncnc2c1[C@@H]1OC[C@H](CN2)N1S(C)(=O)=O` [Compound 107], the melting point is 136 to 138 °C. In addition, the activity at 10 µM in data set [1] came to 94%. Further, in data set [1] (various concentrations with 80 nM TG for 20 hours), the “change in Venus fluorescence intensity” value is “the activity was lost”.

As to `CN(Cc1ccccc1)c1ncnc2c1[C@@H]1OC[C@H](CN2)N1S(=O)(=O)c1ccccc1` [Compound 108], the melting point is 120 to 122 °C. The activity at 10 µM in data set [1] is 105%.

Compound `CN(Cc1ccccc1)c1ncnc2c1[C@@H]1OC[C@H](CN2)N1S(=O)(=O)Cc1ccccc1` [Compound 109] showed a melting point of 78 to 80 °C. Moreover, in data set [1], the activity at 10 µM was 84%.

Compound `CN(Cc1ccccc1)c1ncnc2c1[C@@H]1OC[C@H](CN2)N1S(=O)(=O)c1cccnc1` [Compound 110] had a melting point of 185 to 187 °C. In data set [1], the activity at 10 µM came out at 130%.

`CN(Cc1ccccc1)c1ncnc2c1[C@@H]1OC[C@H](CN2)N1S(=O)(=O)c1cccs1` [Compound 111]: the melting point fell in the range of 112 to 114 °C. For the same compound, in data set [1], the activity at 10 µM came to 110%.

As for `CN(C)c1ncnc2c1[C@@H]1OC[C@H](CN2)N1S(=O)(=O)c1ccc([N+](=O)[O-])cc1` [Compound 112], the melting point was in the range of 118 to 120 °C. Further, in data set [1], the activity at 10 µM amounted to 90%.

In turn, `CN(CCc1ccccc1)c1ncnc2c1[C@@H]1OC[C@H](CN2)N1S(=O)(=O)c1ccc([N+](=O)[O-])cc1` [Compound 113] had a melting point of 108 to 110 °C. The activity at 10 µM in data set [1] was 71%.

`CC(C)N(Cc1ccccc1)c1ncnc2c1[C@@H]1OC[C@H](CN2)N1S(=O)(=O)c1ccc([N+](=O)[O-])cc1` [Compound 114] came in with a melting point of 85 to 87 °C. Moreover, in data set [1], the IC50 is 6.9 µM and the activity at 10 µM stood at 47%.

Turning to `C=C(C)c1ncnc2c1[C@@H]1OC[C@H](CN2)N1S(=O)(=O)c1ccc([N+](=O)[O-])cc1` [Compound 115], the melting point was in the range of 200 to 202 °C. Further, the activity at 10 µM in data set [1] was determined as 99%.

`COc1ccc(-c2ncnc3c2[C@@H]2OC[C@H](CN3)N2S(=O)(=O)c2ccc([N+](=O)[O-])cc2)cc1` [Compound 116] had a melting point of 250 to 252 °C. Besides, the activity at 10 µM in data set [1] stood at 135%.

`CN(Cc1ccc(F)cc1)c1ncnc2c1[C@@H]1OC[C@H](CN2)N1S(=O)(=O)c1ccc([N+](=O)[O-])cc1` [Compound 118] returned a melting point of 102 to 104 °C. Moreover, in data set [1], the IC50 was 7.6 µM and the activity at 10 µM came to 55%.

As for `CN(Cc1ccc(N=[N+]=[N-])cc1)c1ncnc2c1[C@@H]1OC[C@H](CN2)N1S(=O)(=O)c1ccc([N+](=O)[O-])cc1` [Compound 119], the melting point lay within 88 to 90 °C. Besides, in data set [1], the IC50 was 4.6 µM and the activity at 10 µM was found to be 56%.

In the case of `CN(Cc1ccc(Cl)cc1)c1ncnc2c1[C@@H]1OC[C@H](CN2)N1S(=O)(=O)c1ccc(F)cc1` [Compound 120], the melting point fell in the range of 150 to 152 °C. The activity at 10 µM in data set [1] is 81%.

Take `COc1ccc(S(=O)(=O)N2[C@H]3CNc4ncnc(N(C)Cc5ccc(Cl)cc5)c4[C@@H]2OC3)cc1` [Compound 121]: the melting point was 156 to 158 °C. For the same compound, in data set [1], the IC50 came out at 6.6 µM and the activity at 10 µM amounted to 51%.

The compound `CC(=O)N1C[C@H]2CO[C@@H](c3c(N(C)Cc4ccc(Cl)cc4)ncnc31)N2S(=O)(=O)c1ccc([N+](=O)[O-])cc1` [Compound 122] came in with a melting point of 105 to 107 °C. Also, the activity at 10 µM in data set [1] turned out to be 81%.

The compound `CN(Cc1ccc(Cl)cc1)c1ncnc2c1[C@@H]1OC[C@H](CN2C(=O)C2CC2)N1S(=O)(=O)c1ccc([N+](=O)[O-])cc1` [Compound 123] had a melting point of 124 to 126 °C. In addition, in data set [1], the activity at 10 µM is 78%.

In turn, `C#Cc1ccc(S(=O)(=O)N2[C@H]3CNc4ncnc(N(C)Cc5ccc(N=[N+]=[N-])cc5)c4[C@@H]2OC3)cc1` [Compound 124] gave a melting point of 139 to 141 °C. In data set [1], the IC50 stood at 8.1 µM and the activity at 10 µM was found to be 50%.

Regarding `CN(Cc1ccc(Cl)cc1)c1ncnc2c1[C@H]1OC[C@@H](CN2)N1S(=O)(=O)c1ccc([N+](=O)[O-])cc1` [Compound 125], the activity at 10 µM in data set [1] was determined as 98%.

Consider `C=CCOC(=O)N1[C@H]2CNc3ncnc(N(C)Cc4ccc(Cl)cc4)c3[C@@H]1OC2` [Compound 126], for which the activity at 10 µM in data set [1] was determined as 100%.

As for `CN(Cc1ccc(Cl)cc1)c1ncnc2c1CN(S(=O)(=O)c1ccc([N+](=O)[O-])cc1)[C@H](CO)CN2` [Compound 127], the activity at 10 µM in data set [1] was 100%.

Consider `CN(Cc1ccc(Cl)cc1)c1ncnc2c1[C@H]1OCC[C@@H](CN2)N1S(=O)(=O)c1ccc([N+](=O)[O-])cc1` [Compound 128], for which the activity at 10 µM in data set [1] stood at 95%.

In the case of `CN(Cc1ccc(Cl)cc1)c1ncnc2c1[C@@H]1OC[C@H](CN2C(=O)c2ccc(F)cc2)N1S(=O)(=O)c1ccc([N+](=O)[O-])cc1` [Compound 129], the activity at 10 µM in data set [1] was 70%.

Regarding `CCN1C[C@H]2CO[C@@H](c3c(N(C)Cc4ccc(Cl)cc4)ncnc31)N2S(=O)(=O)c1ccc([N+](=O)[O-])cc1` [Compound 130], the activity at 10 µM in data set [1] was found to be 70%.

On to `CN(Cc1ccc(Cl)cc1)c1ncnc2c1[C@@H]1SC[C@H](CN2)N1S(=O)(=O)c1ccc([N+](=O)[O-])cc1` [Compound 131], for which the activity at 10 µM in data set [1] is 98%.

Turning to `CN(Cc1ccc(Cl)cc1)c1ncnc2c1[C@@H]1SC[C@@H](CN2)N1C(=O)OC(C)(C)C` [Compound 132], in data set [1], the activity at 10 µM was determined as 80%.

Consider `CN(Cc1ccc(Cl)cc1)c1ncnc2c1[C@@H]1SC[C@H](CN2)N1C(=O)Nc1ccc([N+](=O)[O-])cc1` [Compound 133], for which the activity at 10 µM in data set [1] is 94%.

Consider `CN(Cc1ccc(Cl)cc1)c1ncnc2c1[C@H]1N(S(=O)(=O)c3ccc([N+](=O)[O-])cc3)[C@@H](CN2)CS1(=O)=O` [Compound 134], for which, in data set [1], the activity at 10 µM turned out to be 100%.

With `COc1ccc(CN(C)c2ncnc3c2[C@@H]2SC[C@H](CN3)N2S(=O)(=O)c2ccc([N+](=O)[O-])cc2)cc1` [Compound 135], the activity at 10 µM in data set [1] turned out to be 57%.

For the compound `CNc1ncnc2c1[C@@H]1OC[C@H](CN2)N1S(=O)(=O)c1ccc([N+](=O)[O-])cc1` [Compound 136], the activity at 10 µM in data set [1] is 10%.

For `COc1cc2c(cc1OC)C(=O)C(CC1CCN(Cc3ccccc3)CC1)C2` (centres unmarked) [Donepezil, reference compound], the “learning ability (Acquisition test), rank order” value in data set [2] was “WT >Donepezil >SB-1617>Vehicle”.
